From patent publication US20230014151A1, “COMBINATION ANTIVIRAL THERAPY FOR MEASLES” (The Trustees of Columbia University in the City of New York, priority 2019, published 2023)
Entries after “also recorded” stand apart in the source; their conditions may differ. Read-outs that look alike come from different tables or passages of the source.

Experiments:
[1] = test system: vesicular stomatitis virus (VSV); conditions: 16 h
[2] = target: viral glycoproteins (H and F); Nectin-4 (Measles virus, UniProt Q786F3); assay: beta-galactosidase complementation-based fusion assay, Nectin-4 target cells
Chain of viral glycoproteins (H and F); Nectin-4 (Q786F3 24-112): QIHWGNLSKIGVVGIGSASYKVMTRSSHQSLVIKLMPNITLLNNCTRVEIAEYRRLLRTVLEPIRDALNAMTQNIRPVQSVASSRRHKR

soluble MeV F [3] = target: T1, soluble MeV F (Measles virus, UniProt Q786F3); assay type: biochemical; conditions: peptide in culture medium, supernatant 24 hours post transfection
T1 construct: produced in a soluble form, with the ablation of the intracytoplasmic and transmembrane domains; Tobacco Etch Virus protease site (C); foldomer (trimerization) domain (C); 6xHis (C); made in house; host or cells: 293T (culture supernatant)
T1 sequence (Q786F3 113-494, added parts left off): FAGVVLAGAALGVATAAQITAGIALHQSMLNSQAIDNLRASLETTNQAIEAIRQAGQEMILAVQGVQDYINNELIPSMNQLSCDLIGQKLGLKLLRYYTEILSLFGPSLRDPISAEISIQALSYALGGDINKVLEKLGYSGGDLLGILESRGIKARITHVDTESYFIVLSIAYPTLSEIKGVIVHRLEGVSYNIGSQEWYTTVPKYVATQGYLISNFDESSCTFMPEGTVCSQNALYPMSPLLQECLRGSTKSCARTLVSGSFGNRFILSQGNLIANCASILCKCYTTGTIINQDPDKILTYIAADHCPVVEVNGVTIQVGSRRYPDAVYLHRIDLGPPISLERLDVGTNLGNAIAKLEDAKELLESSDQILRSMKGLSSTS
T1 sequence (Q786F3 24-112): as the sequence (Q786F3 24-112) above

soluble MeV F [4] = assay type: biochemical, measles virus
[5] = target: viral glycoproteins (H and F); CD150; assay: beta-galactosidase complementation-based fusion assay, CD150 target cells
Chain of viral glycoproteins (H and F); CD150 (Q786F3 24-112): as above
Chain of viral glycoproteins (H and F); CD150 (Q786F3 113-550): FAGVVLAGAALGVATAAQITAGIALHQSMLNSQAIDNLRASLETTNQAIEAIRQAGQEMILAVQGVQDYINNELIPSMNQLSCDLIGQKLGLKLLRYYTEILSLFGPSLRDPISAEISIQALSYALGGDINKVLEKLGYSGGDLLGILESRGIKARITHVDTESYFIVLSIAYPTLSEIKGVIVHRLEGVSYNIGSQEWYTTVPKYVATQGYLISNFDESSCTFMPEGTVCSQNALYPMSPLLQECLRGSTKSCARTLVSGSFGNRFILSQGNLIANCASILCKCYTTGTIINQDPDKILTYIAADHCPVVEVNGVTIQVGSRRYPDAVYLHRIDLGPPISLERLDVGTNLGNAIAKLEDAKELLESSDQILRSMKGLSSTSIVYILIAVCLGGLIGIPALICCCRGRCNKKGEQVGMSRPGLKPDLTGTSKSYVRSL

Row | Compound | IC50 [1] | IC50 [2] | IC90 [2] | IC90 ([2]; read-out: Nectin4 IC90) | stabilization of wt soluble F in pre-fusion state (soluble MeV F [3]) | stabilization of wt soluble F in pre-fusion state (soluble MeV F [3]; listed as FIP-HRC-PEG11-dimer) | stabilization of soluble F by FIP-HRC (dimer without cholesterol), FIGS. 117A-E (soluble MeV F [4]; 55° C., 1 mM peptide, compared with FIP commercial, FIP dimer, 3 g) | stabilization of soluble F proteins on heating (soluble MeV F [4]; wt, E455G, E170G E455G soluble F, 45° C. or 55° C. for 30', 1 uM peptide) | IC50 [5] | IC90 ([5]; read-out: CD150 IC90)
1 | CC[C@H](C)[C@H](NC(=O)[C@H](CC(C)C)NC(=O)[C@H](CO)NC(=O)[C@H](Cc1c[nH]cn1)NC(=O)[C@@H](NC(=O)[C@H](CC(C)C)NC(=O)[C@H](CO)NC(=O)[C@@H](NC(=O)[C@H](Cc1ccc(O)cc1)NC(=O)[C@H](CC(N)=O)NC(=O)[C@H](CC(N)=O)NC(=O)[C@@H](NC(=O)[C@H](CCC(=O)O)NC(=O)[C@H](CCCNC(=N)N)NC(=O)[C@H](CC(=O)O)NC(=O)[C@H](Cc1c[nH]c2ccccc12)NC(=O)[C@H](CCC(=O)O)NC(=O)[C@H](CCSC)NC(=O)[C@H](Cc1c[nH]c2ccccc12)NC(=O)CNC(=O)[C@H](CO)NC(=O)CNC(=O)[C@H](CO)NC(=O)CNC(=O)CNC(=O)[C@H](Cc1ccccc1)NC(=O)[C@@H](Cc1ccccc1)NC(=O)OCc1ccccc1)[C@@H](C)CC)[C@@H](C)O)[C@@H](C)CC)C(=O)N[C@@H](CCC(=O)O)C(=O)N[C@@H](CCC(=O)O)C(=O)N[C@@H](CO)C(=O)N[C@@H](CCC(N)=O)C(=O)N[C@@H](CC(N)=O)C(=O)N[C@@H](CCC(N)=O)C(=O)N[C@@H](CCC(N)=O)C(=O)N[C@@H](CCC(=O)O)C(=O)N[C@@H](CCCCN)C(=O)N[C@@H](CC(N)=O)C(=O)N[C@@H](CCC(=O)O)C(=O)N[C@@H](CCC(N)=O)C(=O)N[C@@H](CCC(=O)O)C(=O)N[C@@H](CC(C)C)C(=O)N[C@@H](CC(C)C)C(=O)NCC(=O)N[C@@H](CO)C(=O)NCC(=O)N[C@@H](CO)C(=O)NCC(=O)N[C@@H](CSC1CC(=O)N(CCCC(=O)NCCOCCOCCOCCOCCC(=O)NCCN(CCNC(=O)CCOCCOCCOCCOCCNC(=O)CCCN2C(=O)CC(SC[C@H](NC(=O)CNC(=O)[C@H](CO)NC(=O)CNC(=O)[C@H](CO)NC(=O)CNC(=O)[C@H](CC(C)C)NC(=O)[C@H](CC(C)C)NC(=O)[C@H](CCC(=O)O)NC(=O)[C@H](CCC(N)=O)NC(=O)[C@H](CCC(=O)O)NC(=O)[C@H](CC(N)=O)NC(=O)[C@H](CCCCN)NC(=O)[C@H](CCC(=O)O)NC(=O)[C@H](CCC(N)=O)NC(=O)[C@H](CCC(N)=O)NC(=O)[C@H](CC(N)=O)NC(=O)[C@H](CCC(N)=O)NC(=O)[C@H](CO)NC(=O)[C@H](CCC(=O)O)NC(=O)[C@H](CCC(=O)O)NC(=O)[C@@H](NC(=O)[C@H](CC(C)C)NC(=O)[C@H](CO)NC(=O)[C@H](Cc3c[nH]cn3)NC(=O)[C@@H](NC(=O)[C@H](CC(C)C)NC(=O)[C@H](CO)NC(=O)[C@@H](NC(=O)[C@H](Cc3ccc(O)cc3)NC(=O)[C@H](CC(N)=O)NC(=O)[C@H](CC(N)=O)NC(=O)[C@@H](NC(=O)[C@H](CCC(=O)O)NC(=O)[C@H](CCCNC(=N)N)NC(=O)[C@H](CC(=O)O)NC(=O)[C@H](Cc3c[nH]c4ccccc34)NC(=O)[C@H](CCC(=O)O)NC(=O)[C@H](CCSC)NC(=O)[C@H](Cc3c[nH]c4ccccc34)NC(=O)CNC(=O)[C@H](CO)NC(=O)CNC(=O)[C@H](CO)NC(=O)CNC(=O)CNC(=O)[C@H](Cc3ccccc3)NC(=O)[C@@H](Cc3ccccc3)NC(=O)OCc3ccccc3)[C@@H](C)CC)[C@@H](C)O)[C@@H](C)CC)[C@@H](C)CC)C(=O)O)C2=O)CCO[C@H]2CC[C@@]3(C)C(=CC[C@H]4[C@@H]5CC[C@H]([C@H](C)CCCC(C)C)[C@@]5(C)CC[C@@H]43)C2)C1=O)C(=O)O (stereo partly shown) [FIP HIV] | > 5 µM |  |  |  |  |  |  |  |  | 
2 | CC[C@H](C)[C@H](NC(=O)[C@H](C)NC(=O)[C@H](CC(N)=O)NC(=O)CNC(=O)[C@H](CC(C)C)NC(=O)[C@H](CC(N)=O)NC(=O)[C@@H](NC(=O)CNC(=O)[C@@H](NC(=O)[C@H](CC(=O)O)NC(=O)[C@H](CC(C)C)NC(=O)[C@H](CCCNC(=N)N)NC(=O)[C@H](CCC(=O)O)NC(=O)[C@H](CC(C)C)NC(=O)[C@H](CO)NC(=O)[C@@H](NC(=O)[C@@H]1CCCN1C(=O)[C@@H]1CCCN1C(=O)CNC(=O)[C@H](CO)NC(=O)CNC(=O)[C@H](CO)NC(=O)CNC(=O)CNC(=O)[C@H](Cc1ccccc1)NC(=O)[C@@H](Cc1ccccc1)NC(=O)OCc1ccccc1)[C@@H](C)CC)C(C)C)[C@@H](C)O)C(=O)N[C@@H](C)C(=O)N[C@@H](CCCCN)C(=O)N[C@@H](CC(C)C)C(=O)N[C@@H](CCC(=O)O)C(=O)N[C@@H](CC(=O)O)C(=O)N[C@@H](C)C(=O)N[C@@H](CCCCN)C(=O)N[C@@H](CCC(=O)O)C(=O)N[C@@H](CC(C)C)C(=O)N[C@@H](CC(C)C)C(=O)N[C@@H](CCC(=O)O)C(=O)N[C@@H](CO)C(=O)N[C@@H](CO)C(=O)N[C@@H](CC(=O)O)C(=O)N[C@@H](CCC(N)=O)C(=O)N[C@H](C(=O)N[C@@H](CC(C)C)C(=O)N[C@@H](CCCNC(=N)N)C(=O)NCC(=O)N[C@@H](CO)C(=O)NCC(=O)N[C@@H](CO)C(=O)NCC(=O)N[C@@H](CSC1CC(=O)N(CCC(=O)NCCOCCOCCOCCOCCOCCOCCOCCOCCOCCOCCOCCNC(=O)CCN2C(=O)CC(SC[C@H](NC(=O)CNC(=O)[C@H](CO)NC(=O)CNC(=O)[C@H](CO)NC(=O)CNC(=O)[C@H](CCCNC(=N)N)NC(=O)[C@H](CC(C)C)NC(=O)[C@@H](NC(=O)[C@H](CCC(N)=O)NC(=O)[C@H](CC(=O)O)NC(=O)[C@H](CO)NC(=O)[C@H](CO)NC(=O)[C@H](CCC(=O)O)NC(=O)[C@H](CC(C)C)NC(=O)[C@H](CC(C)C)NC(=O)[C@H](CCC(=O)O)NC(=O)[C@H](CCCCN)NC(=O)[C@H](C)NC(=O)[C@H](CC(=O)O)NC(=O)[C@H](CCC(=O)O)NC(=O)[C@H](CC(C)C)NC(=O)[C@H](CCCCN)NC(=O)[C@H](C)NC(=O)[C@@H](NC(=O)[C@H](C)NC(=O)[C@H](CC(N)=O)NC(=O)CNC(=O)[C@H](CC(C)C)NC(=O)[C@H](CC(N)=O)NC(=O)[C@@H](NC(=O)CNC(=O)[C@@H](NC(=O)[C@H](CC(=O)O)NC(=O)[C@H](CC(C)C)NC(=O)[C@H](CCCNC(=N)N)NC(=O)[C@H](CCC(=O)O)NC(=O)[C@H](CC(C)C)NC(=O)[C@H](CO)NC(=O)[C@@H](NC(=O)[C@@H]3CCCN3C(=O)[C@@H]3CCCN3C(=O)CNC(=O)[C@H](CO)NC(=O)CNC(=O)[C@H](CO)NC(=O)CNC(=O)CNC(=O)[C@H](Cc3ccccc3)NC(=O)[C@@H](Cc3ccccc3)NC(=O)OCc3ccccc3)[C@@H](C)CC)C(C)C)[C@@H](C)O)[C@@H](C)CC)[C@@H](C)CC)C(=O)O)C2=O)C1=O)C(=O)O)[C@@H](C)CC (stereo partly shown) [[FIP-HRC450-485]2-peg11] |  | 0.528 ± 0.635 µM | 1.18 ± 0.979 µM | 1.18 ± 0.979 µM | stabilize the wt soluble F | wt F protein remains in its pre-fusion state | remains in its pre-fusion state incubation at 55 °C for up to two hours; also recorded: wt F is partially stabilized; also recorded: superior to commercially available stabilizer like the commercial FIP and 3 g | stabilize all the soluble F protein at both 45 °C and 55 °C | 0.278 ± 0.229 µM | 0.916 ± 0.162 µM
